Structures can show the parent of a compound that is named as a salt. Some results are limits rather than exact numbers.

In one assay the target is TBK1 (Homo sapiens (Human), UniProt Q9UHD2). The experiment in a line: TBK Biochemical Assay. The method, then: Example 106: TBK Biochemical Assay Test compounds were transferred into Labcyte polypropylene 384 well plates ([…]-25) and diluted to 3 mM using DMSO. 3 mM test compounds were dispensed using Labcyte ECHO dose response module into Greiner 784075 plates (columns 3-12 and 13-22, 10 point 1:4) so that high concentration was 30 uM final. 100 uM of a reference compound (1 uM final high concentration). Backfilling was performed if necessary so that all wells contain 1% DMSO final: add 75 nl DMSO/well into columns 1, 2 and 24 using Labcyte Echo. add 75 nl 1.0 mM staurosporine/well into column 23 using Labcyte Echo (10 uM final) add 4.5 ul enzyme/well using multidrop dispenser add 3 ul substrate/well using multidrop dispenser incubate at 25° C. in Heidolph incubator for 90 min. add 7.5 ul 2× stop buffer using multidrop dispenser read on labchip ez reader II using TBK1.job Raw data files were opened in the Caliper LabChip Reviewer program (Version 3.0.265.0 SP2) and peak assignments were adjusted to reflect “substrate first” with the software's post-run analysis options. A spline-fit baseline was applied using the software's analysis algorithm.
TBK1, sequence (Q9UHD2 whole entry, species assumed): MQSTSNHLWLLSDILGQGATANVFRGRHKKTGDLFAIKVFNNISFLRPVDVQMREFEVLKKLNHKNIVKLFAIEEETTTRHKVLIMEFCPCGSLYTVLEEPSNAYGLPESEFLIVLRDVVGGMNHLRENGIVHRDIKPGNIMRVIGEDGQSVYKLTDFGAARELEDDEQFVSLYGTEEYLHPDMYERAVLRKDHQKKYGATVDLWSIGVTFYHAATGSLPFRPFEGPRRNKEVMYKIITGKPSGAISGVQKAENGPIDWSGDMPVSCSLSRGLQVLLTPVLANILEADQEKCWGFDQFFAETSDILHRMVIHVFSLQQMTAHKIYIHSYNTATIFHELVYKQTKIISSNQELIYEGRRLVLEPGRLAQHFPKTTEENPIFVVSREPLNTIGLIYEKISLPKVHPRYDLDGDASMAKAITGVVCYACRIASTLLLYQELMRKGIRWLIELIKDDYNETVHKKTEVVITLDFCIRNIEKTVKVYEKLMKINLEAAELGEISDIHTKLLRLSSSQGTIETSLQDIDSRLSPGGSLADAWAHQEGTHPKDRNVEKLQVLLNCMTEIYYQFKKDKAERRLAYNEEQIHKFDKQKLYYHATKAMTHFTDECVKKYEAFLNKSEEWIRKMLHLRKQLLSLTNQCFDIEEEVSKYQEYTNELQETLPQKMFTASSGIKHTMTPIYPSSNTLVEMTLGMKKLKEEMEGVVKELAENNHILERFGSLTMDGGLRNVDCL

The target of the next assay is IKKe (Homo sapiens (Human), UniProt Q14164). Description: IKKe Biochemical Assay. On the procedure: IKKe Biochemical Assay Test compounds were transferred into Labcyte polypropylene 384 well plates ([…]-25) and diluted to 3 mM using DMSO. 3 mM test compounds were dispensed using Labcyte ECHO dose response module into Greiner 784075 plates (columns 3-12 and 13-22, 10 point 1:4) so that high concentration was 30 uM final. 100 uM of a reference compound (1 uM final high concentration). Backfilling was performed if necessary so that all wells contain 1% DMSO final: add 75 nl DMSO/well into columns 1, 2 and 24 using Labcyte Echo. add 75 nl 1.0 mM staurosporine/well into column 23 using Labcyte Echo (10 uM final) add 4.5 ul enzyme/well using multidrop dispenser add 3 ul substrate/well using multidrop dispenser incubate at 25° C. for 90 min. add 7.5 ul 2× stop buffer read on labchip ez reader II using IKKε. job Raw data files were opened in the Caliper LabChip Reviewer program (Version 3.0.265.0 SP2) and peak assignments were adjusted to reflect “substrate first” with the software's post-run analysis options. A spline-fit baseline was applied using the software's analysis algorithm.
IKKe, sequence (Q14164 whole entry, species assumed): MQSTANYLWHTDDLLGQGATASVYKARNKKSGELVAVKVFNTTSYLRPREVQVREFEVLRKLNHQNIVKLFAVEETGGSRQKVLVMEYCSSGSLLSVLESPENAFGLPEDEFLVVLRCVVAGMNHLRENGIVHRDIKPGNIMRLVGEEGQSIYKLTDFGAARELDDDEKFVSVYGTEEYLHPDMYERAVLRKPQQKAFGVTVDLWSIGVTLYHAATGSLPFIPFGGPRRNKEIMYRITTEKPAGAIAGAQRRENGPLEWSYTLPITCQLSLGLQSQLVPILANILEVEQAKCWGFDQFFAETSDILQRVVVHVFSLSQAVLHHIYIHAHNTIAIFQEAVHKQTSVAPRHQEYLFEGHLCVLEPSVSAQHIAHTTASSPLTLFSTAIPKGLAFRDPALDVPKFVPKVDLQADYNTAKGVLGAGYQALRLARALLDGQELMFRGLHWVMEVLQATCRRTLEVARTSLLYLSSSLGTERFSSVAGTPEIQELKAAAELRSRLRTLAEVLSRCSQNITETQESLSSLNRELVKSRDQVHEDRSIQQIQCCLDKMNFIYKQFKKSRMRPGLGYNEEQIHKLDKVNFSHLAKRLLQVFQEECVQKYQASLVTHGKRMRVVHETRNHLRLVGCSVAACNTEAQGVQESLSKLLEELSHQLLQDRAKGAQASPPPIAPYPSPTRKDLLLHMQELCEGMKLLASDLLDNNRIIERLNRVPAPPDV

In the case of `COc1nc(Nc2cc(-c3ccc(OC4CCN(C(=O)CO)CC4)c(C#N)c3)ncn2)ccc1C(=O)N(C)C` [Example 42, 6-[[6-(3-cyano-4-[[1-(2-hydroxyacetyl)piperidin-4-yl]oxy]phenyl)pyrimidin-4-yl]amino]-2-methoxy-N,N-dimethylpyridine-3-carboxamide], the IC50 against TBK1 and against IKKe was under 100 nM each time.
With `COc1nc(Nc2cc(-c3ccc(OC4CCN(C(=O)[C@@H](C)O)CC4(F)F)c(C#N)c3)ncn2)ccc1N1CCN(C2COC2)C[C@@H]1C` (stereo partly drawn) [Example 68, 2-([3,3-difluoro-1-[(2R)-2-hydroxypropanoyl]piperidin-4-yl]oxy)-5-[6-([6-methoxy-5-[(2S)-2-methyl-4-(oxetan-3-yl)piperazin-1-yl]pyridin-2-yl]amino)pyrimidin-4-yl]benzonitrile], the IC50 at TBK1 and at IKKe was under 100 nM in each case.
As to `COc1nc(Nc2cc(-c3ccc(O[C@H]4CCN(C(=O)[C@H](C)O)CC4(F)F)c(C#N)c3)ncn2)ccc1N1CCN(C2COC2)C[C@@H]1C` [Example 101, 2-[[(4S)-3,3-difluoro-1-[(2S)-2-hydroxypropanoyl]piperidin-4-yl]oxy]-5-[6-([6-methoxy-5-[(2S)-2-methyl-4-(oxetan-3-yl)piperazin-1-yl]pyridin-2-yl]amino)pyrimidin-4-yl]benzonitrile], the IC50 against TBK1 and against IKKe was under 100 nM each time.
Consider `COc1nc(Nc2cc(-c3ccc(O[C@@H]4CCN(C(=O)[C@H](C)O)CC4(F)F)c(C#N)c3)ncn2)ccc1N1CCN(C2COC2)CC1` [Example 92, 2-[[(4R)-3,3-difluoro-1-[(2S)-2-hydroxypropanoyl]piperidin-4-yl]oxy]-5-[6-([6-methoxy-5-[4-(oxetan-3-yl)piperazin-1-yl]pyridin-2-yl]amino)pyrimidin-4-yl]benzonitrile], for which the IC50 on TBK1 and at IKKe was under 100 nM throughout.
For the compound `C[C@H](O)C(=O)N1CCC(Oc2ccc(-c3cc(Nc4ccc(N5CCN(C6COC6)CC5)cc4)ncn3)cc2C#N)C(F)(F)C1` (stereo partly drawn) [Example 85, 2-([3,3-difluoro-1-[(2S)-2-hydroxypropanoyl]piperidin-4-yl]oxy)-5-[6-([4-[4-(oxetan-3-yl)piperazin-1-yl]phenyl]amino)pyrimidin-4-yl]benzonitrile], the IC50 on TBK1 and against IKKe was under 100 nM throughout.
As for `COc1nc(Nc2cc(-c3ccc(OC4CCN(C)CC4)c(C#N)c3)ncn2)ccc1C(=O)N(C)C` [Example 41, 6-[(6-[3-cyano-4-[(1-methylpiperidin-4-yl)oxy]phenyl]pyrimidin-4-yl)amino]-2-methoxy-N,N-dimethylpyridine-3-carboxamide], the IC50 against TBK1 and on IKKe was 1000 to 5000 nM throughout.
As for `COc1nc(Nc2cc(-c3cc(C#N)c(OC4CCOCC4)cn3)ncn2)ccc1N1CCN(C)CC1` [Example 21, 2-(6-[[6-methoxy-5-(4-methylpiperazin-1-yl)pyridin-2-yl]amino]pyrimidin-4-yl)-5-(oxan-4-yloxy)pyridine-4-carbonitrile], the IC50 against TBK1 and against IKKe was under 100 nM each time.
For `COc1nc(Nc2cc(-c3ccc(O[C@H]4CCN(C(=O)CO)CC4(F)F)c(C#N)c3)ncn2)ccc1N1CCN(C)CC1` [Example 60, 2-[[(4S)-3,3-difluoro-1-(2-hydroxyacetyl)piperidin-4-yl]oxy]-5-(6-[[6-methoxy-5-(4-methylpiperazin-1-yl)pyridin-2-yl]amino]pyrimidin-4-yl)benzonitrile], the IC50 against TBK1 and on IKKe was under 100 nM in each case.
As for `COc1nc(Nc2cc(-c3ccc(OC4CCOCC4)c(C#N)c3)ncn2)ccc1C(=O)NC1CCN(C)CC1` [Example 7, 6-([6-[3-cyano-4-(oxan-4-yloxy)phenyl]pyrimidin-4-yl]amino)-2-methoxy-N-(1-methylpiperidin-4-yl)pyridine-3-carboxamide hydrochloride], the IC50 against TBK1 and against IKKe was under 100 nM in each case.
For the compound `COc1nc(Nc2cc(-c3ccc(O[C@H]4CCN(C(=O)CO)C[C@H]4F)c(C#N)c3)ncn2)ccc1C(=O)N(C)C` [Example 47, 6-[[6-(3-cyano-4-[[(3R,4S)-3-fluoro-1-(2-hydroxyacetyl)piperidin-4-yl]oxy]phenyl)pyrimidin-4-yl]amino]-2-methoxy-N,N-dimethylpyridine-3-carboxamide], the IC50 on TBK1 and against IKKe was under 100 nM each time.
Regarding `COc1nc(Nc2cc(-c3ccc(OC4CCN(C(=O)c5cocn5)CC4)c(C#N)c3)ncn2)ccc1N1CCN(C)CC1` [Example 54, 5-(6-[[6-methoxy-5-(4-methylpiperazin-1-yl)pyridin-2-yl]amino]pyrimidin-4-yl)-2-([1-[(1,3-oxazol-4-yl)carbonyl]piperidin-4-yl]oxy)benzonitrile], the IC50 at TBK1 and at IKKe was under 100 nM each time.
For the compound `COc1nc(Nc2cc(-c3ccc(O[C@@H]4CCN(C(=O)[C@@H](C)O)CC4(F)F)c(C#N)c3)ncn2)ccc1N1CCN(C2COC2)C[C@@H]1C` [Example 98, 2-((R)-3,3-difluoro-1-((R)-2-hydroxypropanoyl)piperidin-4-yloxy)-5-(6-(6-methoxy-5-((S)-2-methyl-4-(oxetan-3-yl)piperazin-1-yl)pyridin-2-ylamino)pyrimidin-4-yl)benzonitrile], the IC50 against TBK1 and at IKKe was under 100 nM in each case.
On to `COc1nc(Nc2cc(-c3cc(C#N)c(OC4CCOCC4)cn3)ncn2)ccc1C1CCN(C)CC1` [Example 24, 2-(6-[[6-methoxy-5-(1-methylpiperidin-4-yl)pyridin-2-yl]amino]pyrimidin-4-yl)-5-(oxan-4-yloxy)pyridine-4-carbonitrile], for which the IC50 against TBK1 and at IKKe was under 100 nM each time.
Consider `COc1nc(Nc2cc(-c3ccc(OC4CCN(C(=O)[C@@H](C)O)CC4(F)F)c(C#N)c3)ncn2)ccc1N1CCN(C)C[C@H]1C` (stereo partly drawn) [Example 66, 2-([3,3-difluoro-1-[(2R)-2-hydroxypropanoyl]piperidin-4-yl]oxy)-5-[6-([5-[(2R)-2,4-dimethylpiperazin-1-yl]-6-methoxypyridin-2-yl]amino)pyrimidin-4-yl]benzonitrile hydrochloride], for which the IC50 against TBK1 and against IKKe was under 100 nM in each case.
In the case of `COc1nc(Nc2cc(-c3ccc(OC4CN(C)C4)c(C#N)c3)ncn2)ccc1C(=O)N(C)C` [Example 37, 6-[(6-[3-cyano-4-[(1-methylazetidin-3-yl)oxy]phenyl]pyrimidin-4-yl)amino]-2-methoxy-N,N-dimethylpyridine-3-carboxamide], the IC50 on TBK1 and against IKKe was 100 to 1000 nM throughout.
Consider `COc1nc(Nc2cc(-c3ccc(OC4CCOCC4)c(C#N)c3)ncn2)ccc1N1C[C@@H](C)N(C2COC2)[C@@H](C)C1` [Example 16, 5-[6-([5-[(3R,5S)-3,5-dimethyl-4-(oxetan-3-yl)piperazin-1-yl]-6-methoxypyridin-2-yl]amino)pyrimidin-4-yl]-2-(oxan-4-yloxy)benzonitrile], for which the IC50 against TBK1 and against IKKe was under 100 nM in each case.
As for `COc1nc(Nc2cc(-c3ccc(OC4CCOCC4)c(C#N)c3)ncn2)ccc1C1CCNCC1` [Example 17, 5-(6-[[6-methoxy-5-(piperidin-4-yl)pyridin-2-yl]amino]pyrimidin-4-yl)-2-(oxan-4-yloxy)benzonitrile], the IC50 against TBK1 and against IKKe was under 100 nM throughout.
With `COc1nc(Nc2cc(-c3ccc(OC4CCN(C)CC4(F)F)c(C#N)c3)ncn2)ccc1N1CCN(C)CC1` (stereo not drawn) [Example 58, 2-[(3,3-difluoro-1-methylpiperidin-4-yl)oxy]-5-(6-[[6-methoxy-5-(4-methylpiperazin-1-yl)pyridin-2-yl]amino]pyrimidin-4-yl)benzonitrile], the IC50 at TBK1 and on IKKe was under 100 nM each time.
Turning to `COc1nc(Nc2cc(-c3ccc(OC4CCOCC4)c(C#N)n3)ncn2)ccc1C(=O)N(C)C` [Example 8, 6-([6-[6-cyano-5-(oxan-4-yloxy)pyridin-2-yl]pyrimidin-4-yl]amino)-2-methoxy-N,N-dimethylpyridine-3-carboxamide], the IC50 against TBK1 and on IKKe was 1000 to 5000 nM each time.
In the case of `COc1cc(Nc2cc(-c3ccc(OC4CCOCC4)c(C#N)c3)ncn2)cnc1N1CCN(C)CC1` [Example 34, 5-(6-[[5-methoxy-6-(4-methylpiperazin-1-yl)pyridin-3-yl]amino]pyrimidin-4-yl)-2-(oxan-4-yloxy)benzonitrile], the IC50 against TBK1 and against IKKe was 100 to 1000 nM throughout.
As to `COc1nc(Nc2cc(-c3ccc(OC4CCN(C(=O)[C@H](C)O)CC4(F)F)c(C#N)c3)ncn2)ccc1N1CCN(C2COC2)CC1` (stereo partly drawn) [Example 78, 2-([3,3-difluoro-1-[(2S)-2-hydroxypropanoyl]piperidin-4-yl]oxy)-5-[6-([6-methoxy-5-[4-(oxetan-3-yl)piperazin-1-yl]pyridin-2-yl]amino)pyrimidin-4-yl]benzonitrile], the IC50 against TBK1 and at IKKe was under 100 nM each time.

(Values after US11440899B2, “Pyrimidine TBK/IKKe inhibitor compounds and uses thereof” (Merck Patent GmbH, priority 2017, dated 2022).)
